Measurements taken from publication PMC10683482, “Offsetting Low-Affinity Carbohydrate Binding with Covalency to Engage Sugar-Specific Proteins for Tumor-Immune Proximity Induction” (ACS Central Science, 2023).

What follows are compounds tested on human serum antirhamnose antibody (IgG and IgM) (assay: ELISA covalent engagement of serum anti-rhamnose antibody). Conditions: 2 μM compound, 2% human serum, 48 h; rhamnose 100 mM added after incubation.
Type: binding
Experimental: Figure 2 Capacity of Rha-cARMs to specifically covalently engage monoclonal anti-23F and serum anti-rhamnose. A. Chemical structures of the molecules investigated. B. Assessment of covalent vs noncovalent (cARM/ARM) engagement of human serum antirhamnose antibody via an ELISA assay. Each ARM/cARM (2 μM) was incubated with 2% human serum for 48 h and subsequently incubated directly on a streptavidin ELISA plate. Recruitment was evaluated by the addition of anti-IgG or anti-IgM HRP-conjugated secondary antibody with subsequent chromogenic substrate addition. “Comp” represents the addition of competitor rhamnose (500 mM) during 48 h of incubation. “Quench” refers to the addition of competitor rhamnose (100 mM) prior to ELISA plate binding but after 48 h of reaction incubation. C. SDS-PAGE fluorescent image of anti-23F antibody covalently labeled by fluorophore substituted Rha-cARMs (6–8). A representative protein stain associated with each gel is included on the left side of the fluorescent gel images. In all cases, 2 μM anti-23F antibody is incubated with 4 μM cARM (2 equiv) for 24 h in PBS spiked with 10% human serum. Where noted, L-rhamnose (100 mM, Rha. C) was used during incubation as a competitor for specific covalent labeling. Where noted, a free fluoresceine competitor (2.5 mM, Fluor. C) was used to distinguish fluorescein-promoted covalent labeling from rhamnose-promoted. The darker background in gels corresponding to cARM 6, 7 is attributed to the differing capacity of free cARM-fluorophore (fluoroscein vs A647) to be retained in gel, as well as an alternative imaging channel (Cy2 for fluorescein, Cy5 for A647). […] D. Kinetic SDS-PAGE fluorescence imaging experiment to determine Rha-AI-cARM/anti-23F antibody labeling kinetics using A647-cARM (8). cARM 8 (2–100 μM) was incubated with anti-23F antibody (2 μM) for up to 4 h. A representative fluorescence gel image is included corresponding to compound 8 (50 μM) incubated with either anti-23F antibody or isotype human IgG. Densitometry analysis with ImageJ was used to quantify relative band intensities. […] The error is calculated by alternative fits of initial rates data (all within the linear labeling range).
Next, we tested if cARM tool compounds can selectively label endogenous human polyclonal antirhamnose antibodies via ELISA (4 α-O rhamnose or 5 α-S rhamnose) (Figure 2B). cARMs (4, 5) and noncovalent analog ARMs (1, 2) were incubated with 2% human serum for 48 h followed by addition to a streptavidin-ELISA plate. Antibody recruitment to the plate surface was measured via the addition of HRP-conjugated anti-IgG or anti-IgM secondary antibody, followed by a chromogenic substrate. […] In the absence of a competitor, we observed robust absorbance signal in samples incubated with cARM. […]
In the case of `C[C@@H]1O[C@@H](OCc2cn(CCOCCNC(=O)OCCOCCOCCOCCOCCOCCOCCOCCNC(=O)CCCC[C@@H]3SC[C@@H]4NC(=O)N[C@@H]43)nn2)[C@H](O)[C@H](O)[C@H]1O` [compound 1], the “antibody binding signal, quench control” value is reported as “baseline signal”.
In the case of `C[C@@H]1O[C@@H](SCc2cn(CCOCCNC(=O)OCCOCCOCCOCCOCCOCCOCCOCCNC(=O)CCCC[C@@H]3SC[C@@H]4NC(=O)N[C@@H]43)nn2)[C@H](O)[C@H](O)[C@H]1O` [compound 2], the “antibody binding signal, quench control” value is reported as “baseline signal”.
For `C[C@@H]1O[C@@H](OCc2cn(CCc3cn(C(=O)OCCOCCOCCOCCOCCOCCOCCOCCNC(=O)CCCC[C@@H]4SC[C@@H]5NC(=O)N[C@@H]54)cn3)nn2)[C@H](O)[C@H](O)[C@H]1O` [compound 4], the “antibody binding signal, quench control” value was “significant antibody binding signal”.
